The values below come from paper PMC6685155, “Simultaneous UPLC–TQ-MS/MS determination of six active components in rat plasma: application in the pharmacokinetic study of Cyclocarya paliurus leaves” (Chinese Medicine, 2019).

This data set can be described thus: Pharmacokinetic study in rats after oral administration of the CP extract (UPLC–TQ-MS/MS of plasma). Format: in vivo. As to conditions: male, Sprague-Dawley, rat plasma, single oral gavage of CP extract 10.5 g/kg, n=6, mean ± SD; for Cmax: non-compartmental. The method, then:
Plasma samples were thawed at room temperature before analysis. Then, 10 μl of IS solution (20 μg/ml) and 200 μl of methanol were added to the plasma sample (90 μl) in a 1.5 ml Eppendorf tube. The mixture was vortexed for 1 min and centrifuged at 12,000×g for 10 min at 4 °C to deproteinize. Thereafter, 2 μl of the supernatant was injected into the UPLC–TQ/MS system for analysis.
Six healthy male Sprague–Dawley rats were fasted for 12 h with free access to water prior to the experiment. The CP extract was administered to rats by oral gavage at a dose of 10.5 g/kg body weight. Blood samples of approximately 0.5 ml were collected at 15 and 30 min and at 1 h, 2 h, 3 h, 4 h, 6 h, 8 h, 10 h, 12 h, and 24 h in heparinized centrifuge tubes from the ophthalmic vein using a sterile capillary tube under anesthesia after oral administration of the CP extract. Following centrifugation at 4000×g for 10 min at 4 °C, plasma samples were transferred to polypropylene tubes and stored at − 80 °C until analysis.
The concentrations of six analytes in plasma at different time points were expressed as mean ± SD, which was calculated from the daily calibration curve. All the pharmacokinetic parameters were processed through non-compartmental analysis using the DAS 3.0 pharmacokinetic program. The maximum plasma concentration (Cmax) and time to reach the maximum concentrations (Tmax) were obtained directly from the curve.

Molecules are shown by their SMILES.

By AUC(0-inf) is commonly meant the area under the concentration-time curve extrapolated to infinity. As usually defined, the AUC(0-t) is exposure summed from dosing to a finite time, without extrapolation to infinity. Low values mean less exposure, high ones more exposure. By Tmax is commonly meant the time at which the peak concentration occurs. The half-life is the time needed for the level to fall by half in the phase considered. High values mean slow decline, low ones rapid decline. One may read the Cmax as the peak of the concentration-time curve. As for `O=c1c(O)c(-c2ccc(O)cc2)oc2cc(O)cc(O)c12` [Kaempferol, kaempferol], the AUC(0-inf) was found to be 325 ± 104 ng·h/mL, the AUC(0-t) is 242 ± 77 ng·h/mL, the Tmax came to 0.67 ± 0.26 h and the half-life was 7.24 ± 1.63 h. For the same compound, the peak level (Cmax) was 122 ± 49.9 ng/mL.

As to `O=c1c(O)c(-c2ccc(O)c(O)c2)oc2cc(O)cc(O)c12` [Quercetin, quercetin], the AUC(0-inf) came out at 91.7 ± 15.2 ng·h/mL, the AUC(0-t) is 79.8 ± 28.5 ng·h/mL, the Tmax turned out to be 0.46 ± 0.1 h and the half-life is 11.7 ± 6.01 h. The highest level (Cmax) was 28.6 ± 8.23 ng/mL.

Regarding `O=C(O)[C@H]1O[C@@H](Oc2c(-c3ccc(O)c(O)c3)oc3cc(O)cc(O)c3c2=O)[C@H](O)[C@@H](O)[C@@H]1O` [Quercetin-3-O-glucuronide, quercetin-3-O-glucuronide], the AUC(0-inf) turned out to be 13500 ng·h/mL, the AUC(0-t) was determined as 11000 ng·h/mL, the Tmax amounted to 0.33 ± 0.13 h and the half-life was 10 ± 3.31 h. The compound also registered a Cmax of 3710 ± 1590 ng/mL.

As to `O=C(/C=C/c1ccc(O)c(O)c1)O[C@@H]1C[C@](O)(C(=O)O)C[C@@H](O)[C@H]1O` [Chlorogenic acid, chlorogenic acid], the AUC(0-inf) turned out to be 3580 ± 1200 ng·h/mL, the area under the curve AUC(0-t) stood at 3310 ± 1060 ng·h/mL, the Tmax came to 0.39 ± 0.13 h and the half-life was 2.54 ± 0.53 h. For the same compound, the Cmax worked out at 4170 ± 1890 ng/mL.

Regarding `O=C(/C=C/c1ccc(O)c(O)c1)O[C@@H]1C[C@@](O)(C(=O)O)C[C@@H](O)[C@@H]1O` [Neochlorogenic acid, neochlorogenic acid], the AUC(0-inf) stood at 2470 ± 943 ng·h/mL, the AUC(0-t) was 2450 ± 952 ng·h/mL, the time to peak (Tmax) was found to be 0.32 ± 0.12 h and the half-life was 4.54 ± 1.38 h. Also, the concentration peaked (Cmax) at 4330 ± 1610 ng/mL.
